Results on five molecules are retold here after paper PMC12843386, “Ly6/uPAR Protein from Asterias rubens Starfish Stimulates Migration and Invasion of Human Epithelial and Immune Cells” (Marine Drugs, 2025).

In experiment [1] the test system is HaCaT keratinocytes. Description: Wound-healing (scratch) assay, collective migration of HaCaT keratinocytes. The settings on record: 10 µM peptide, 24 h, serum-free; % of untreated control; n = 14 (Figure 4a,b). It counts as cell-based, human. The protocol:
Human HaCaT keratinocytes (ATCC, Manassas, VA, USA) were grown (37 °C, 8% CO2) in a DME medium with phenol red (PanEco, Moscow, Russia), 10% fetal calf serum (Thermo Fisher Scientific, Waltham, […], USA), and 2 mM L-glutamine (PanEco). Human peripheral blood monocytes were isolated from human donors’ blood (informed written consent was obtained from the donors) with Lymphosep media (MP Biomedicals, Irvine, CA, USA) and cultivated in RPMI-1640 medium with phenol red (PanEco, Russia), 10% fetal calf serum (Thermo Fisher Scientific), and 2 mM L-glutamine (PanEco). All cells were routinely tested for the absence of mycoplasma contamination (Mycoreport kit, Evrogen, Moscow, Russia).
The in vitro wound healing (scratch) assay was performed as described in [35]. In brief, HaCaT cells were seeded in 96-well cell culture plates (5 × 10^4 cells/well) and grown for 24 h. […] Pictures were analyzed after 0 and 24 h at 20× magnification at CloneSelect Imager (Molecular Devices, San Jose, CA, USA). The center of the plate was marked as a central reference point to ensure that the same area was recorded during the time course. Digital images were taken, and the scratch area was quantified using ImageJ 1.54f software (NIH, Bethesda, MD, USA) and MS Excel 365 (Microsoft, Redmond, WA, USA) software by measuring the % of the scratch surface occupied by migrating cells.

A short description of experiment [2]: ELISA binding to immobilized membrane fraction of A. rubens arm tip. More on the design: species or system Asterias rubens. The settings on record: detection by anti-Lystar5 serum, n = 4 (Figure 3b). The source says: Figure 2 Design of the peptides mimicking the loop and “head” regions of Lystar5 and ELISA experiments. (a) Amino acid sequence alignment of Lystar5 and the peptides: loop I (rose), loop II (orange), loop III (blue), and head (green). Cys residues are shown in gold. Disulfide bonds are shown in brackets. Sequences of the peptides are highlighted by colors corresponding to the Lystar5 loops. The amino acids changed to increase the peptides’ stability are designated by lowercase letters. (b) Spatial structure of Lystar5 predicted from the sequence using ESMFold with regions corresponding to the synthesized peptides colored as shown in panel (a,c). Design of ELISA experiments for proof of detection of Lystar5 and the peptides by the anti-Lystar5 serum of immunized mice (left), identification of the active site of Lystar5, and evaluation of the interaction of Lystar5 and the peptides using the immobilized membrane fraction of different A. rubens tissues (center), and study of complex formation between nAChR and integrin subunits in HaCAT keratinocytes (right). […] Recombinant analogue of Lynx2 was used as a negative control. […] Bound compounds were detected by the anti-Lystar5 serum of immunized mouse. […]
For orientation: An ELISA detects its analyte on a solid surface through an enzyme-linked reagent.

For experiment [3] the following is noted: cited from earlier work. The source says: Ly6/uPAR proteins from different organisms are currently being considered as prototypes for new drugs.

Read-outs that look alike come from different tables or passages of the source. Bridges are numbered along the chain shown (N, C = ends). Where no end group is shown, it is not given here.

In the case of “GEDGCTAATTQLGKRYFADKSRPAWGAVECG (disulfide 5-30 (inferred)) [loop III, C-amidated peptide mimicking loop III of Lystar5: […]]”, the “collective migration of HaCaT keratinocytes (scratch assay), wound closure” value in experiment [1] is reported as “did not affect the collective migration”.

With “VLKTCTSRQDRCG (disulfide 5-12 (inferred)) [head, C-amidated peptide mimicking the "head" region of Lystar5: […]]”, in experiment [1], the “collective migration of HaCaT keratinocytes (scratch assay), wound closure” value is “did not affect the collective migration”. The “binding to the immobilized membrane fraction of the arm tip” value in experiment [2] is given as “neither Lystar5 nor its loops or “head” bound”. For the molecule α-cobratoxin, the anti-cancer activity result in experiment [3] (snake toxin from Naja kaouthia, ref [45]) is given as “effective anti-cancer agents”.

B1: SLURP-1: human-secreted epithelial protein SLURP-1 (protein, UniProt P55000 23-103, looked up)
Secreted Ly-6/uPAR-related …: LKCYTCKEPMTSASCRTITRCKPEDTACMTTLVTVEAEYPFNQSPVVTRSCSSSCVATDPDSIGAAHLIFCCFRDLCNSEL
As for B1, in experiment [3] (human-secreted epithelial protein, ref [46]), the anti-cancer activity entry was “effective anti-cancer agents”.

B2: Lynx1: human protein Lynx1 found in the nervous system, skin, and lungs (protein, UniProt P0DP58 21-91, looked up)
Ly-6/neurotoxin-like protein 1: LDCHVCAYNGDNCFNPMRCPAMVAYCMTTRTYYTPTRMKVSKSCVPRCFETVYDGYSKHASTTSCCQYDLC
Take B2: the anti-cancer activity result in experiment [3] (human protein found in the nervous system, skin, and lungs, ref [47],[48]) is on record as “effective anti-cancer agents”. Also, in experiment [3] (ref [49]), the “cognitive dysfunctions related to the cholinergic system decline” value is “ameliorates cognitive dysfunctions”.
